Laboratory results: patent publication US9868717B2, “Tricyclic sulphonamide compounds and methods of making and using same” (Zafgen, Inc., priority 2012, dated 2018)

Molecular target: T1, Human recombinant MetAP2 (Homo sapiens, UniProt P50579)
T1 construct: made in house; host or cells: Sf9 insect cells
Assay: inhibition of recombinant human MetAP2 activity (MAS substrate, amino acid oxidase/Amplex red fluorescence)
Type: biochemical
Details: manganese enzyme, 30 minutes at 25° C., pH 7.5, 0.75 mM MAS substrate, 1% DMSO
Protocol: Compounds are tested for their capacity to inhibit recombinant human MetAP2 activity using the following assay.
Human recombinant MetAP2 expressed in Sf9 cells followed by affinity purification and EDTA treatment to remove endogenous active site cation was dialysed against MnCl2 to produce the manganese enzyme used in the assay. The assay was carried out for 30 minutes at 25° C. in 50 mM HEPES buffer containing 100 mM NaCl, pH 7.5 the presence of 0.75 mM Methionine-Alanine-Serine (MAS) substrate and 50 μg/ml amino acid oxidase using a dilution of purified MetAP2 giving >3-fold signal:noise. Cleavage of the substrate by MetAP2 and oxidation of free methionine by amino acid oxidase was detected and quantified using fluorescence generated by Amplex red (10-acetyl-3,7-dihydroxyphenoxazine) in combination with horseradish peroxidase which detects H2O2 released during the oxidation step. The fluorescent signal was detected using a multiwell fluorimeter. Compounds were diluted in DMSO prior to addition to assay buffer, the final DMSO concentration in the assay being 1%.
The IC50 is defined as the concentration at which a given compound achieves 50% inhibition of control. IC50 values are calculated using the XLfit software package (version 2.0.5).

T1 sequence (P50579 whole entry): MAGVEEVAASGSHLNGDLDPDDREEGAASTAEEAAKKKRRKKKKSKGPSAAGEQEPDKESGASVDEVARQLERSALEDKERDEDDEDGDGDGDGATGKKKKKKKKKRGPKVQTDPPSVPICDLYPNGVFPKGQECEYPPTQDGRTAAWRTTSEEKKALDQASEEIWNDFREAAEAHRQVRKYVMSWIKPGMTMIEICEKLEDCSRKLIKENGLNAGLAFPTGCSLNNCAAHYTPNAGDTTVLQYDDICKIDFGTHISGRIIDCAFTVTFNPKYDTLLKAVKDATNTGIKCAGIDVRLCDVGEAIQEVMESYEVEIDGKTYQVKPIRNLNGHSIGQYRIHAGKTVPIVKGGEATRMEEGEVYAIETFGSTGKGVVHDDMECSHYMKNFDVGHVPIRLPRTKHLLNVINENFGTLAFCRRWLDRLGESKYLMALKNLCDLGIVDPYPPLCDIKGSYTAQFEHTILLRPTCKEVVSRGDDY

IC50 [nM] | Compound
< 50 | CC(C)(O)[C@@H]1CCN(C/C=C\c2cc(F)ccc2S(=O)(=O)Nc2ccc3c(c2C(=O)O)OC[C@@H]2C[C@H]32)C1 [Example 28, (1aR,7bS)-5-(4-Fluoro-2-{(Z)-3-[(R)-3-(2-hydroxypropan-2-yl)pyrrolidin-1-yl]prop-1-enyl}benzenesulfonylamino)-1,1a,2,7b-tetrahydrocyclopropa[c]chromene-4-carboxylic acid]
< 50 | CCN1CC[C@H](C(=O)NCc2cc(F)ccc2S(=O)(=O)Nc2ccc3c(c2C(=O)O)OC[C@@H]2C[C@H]32)C1 [Example 32, (1aR,7bS)-5-{2-[((S)-1-ethylpyrrolidine-3-carbonyl)aminomethyl]-4-fluoro-benzenesulfonylamino}-1,1a,2,7b-tetrahydrocyclopropa[c]chromene-4-carboxylic acid-formic acid (1:1)]

Further lines, the compound ahead of its results:

Compound | IC50 [nM]
O=C(O)c1c(NS(=O)(=O)c2ccc(F)cc2CC2CC3CCCN3C2)ccc2c1OC[C@@H]1C[C@H]21 (stereo partly drawn) [Example 29, (1aR,7bS)-5-[4-Fluoro-2-(hexahydro-1H-pyrrolizin-2-ylmethyl)benzene-sulfonylamino]-1,1a,2,7b-tetrahydrocyclopropa[c]chromene-4-carboxylic acid] | < 50
CCN1CC[C@@H](Cc2ccccc2S(=O)(=O)Nc2ccc3c(c2C(=O)O)OC[C@@H]2C[C@H]32)C1 [Example 31, (1aR,7bS)-5-[2-((3R)-1-Ethylpyrrolidin-3-ylmethyl)benzenesulfonylamino]-1,1a,2,7b-tetrahydrocyclopropa[c]chromene-4-carboxylic acid] | < 50
CCN1CC[C@@H](NCCc2cc(F)ccc2S(=O)(=O)Nc2ccc3c(c2C(=O)O)OC[C@@H]2C[C@H]32)C1 [Example 33, (1aR,7bS)-5-{2-[2-((R)-1-ethylpyrrolidin-3-ylamino)ethyl]-4-fluoro-benzene-sulfonylamino}-1,1a,2,7b-tetrahydrocyclopropa[c]chromene-4-carboxylic acid-formic acid (1:1)] | < 50
